Assay results from patent US20210322426A1, “METHODS OF TREATING CANCER WITH PI3K ALPHA INHIBITORS AND METFORMIN” (Genentech, Inc., priority 2018, published 2021).
Read-outs that look alike come from different tables or passages of the source.

How the values were obtained:
[1] = test system: patients with HR+/HER2- breast cancer; details: in combination with letrozole; cited from earlier work
[2] = test system: patients with HR+/HER2- breast cancer; details: in combination with fulvestrant; cited from earlier work
[3] = test system: PIK3CA-mutant breast cancer cell lines; assay: proliferation and apoptosis of PIK3CA-mutant breast cancer cell lines; type: cell-based; details: nonclinical studies
[4] = test system: human breast xenograft models harboring PIK3CA mutations; assay: tumor growth in human breast xenograft models harboring PIK3CA mutations; type: in vivo
[5] = test system: PI3K-pathway markers pAKT, pPRAS40, pS6; assay: downstream PI3K-pathway markers (pAKT, pPRAS40, pS6)
[6] = molecular target: Class I PI3K alpha isoform (Homo sapiens, UniProt P42336); details: PI3K alpha versus PI3K beta, delta and gamma isoforms; cited from earlier work
[7] = test system: tumor cells bearing mutant PI3K; details: mutant PI3K over wild type (WT) PI3K cells; cited from earlier work
[8] = test system: mutant p110 alpha; assay: degradation of mutant p110 alpha (nonclinical studies)

Class I PI3K alpha isoform, sequence (P42336 whole entry, canonical isoform): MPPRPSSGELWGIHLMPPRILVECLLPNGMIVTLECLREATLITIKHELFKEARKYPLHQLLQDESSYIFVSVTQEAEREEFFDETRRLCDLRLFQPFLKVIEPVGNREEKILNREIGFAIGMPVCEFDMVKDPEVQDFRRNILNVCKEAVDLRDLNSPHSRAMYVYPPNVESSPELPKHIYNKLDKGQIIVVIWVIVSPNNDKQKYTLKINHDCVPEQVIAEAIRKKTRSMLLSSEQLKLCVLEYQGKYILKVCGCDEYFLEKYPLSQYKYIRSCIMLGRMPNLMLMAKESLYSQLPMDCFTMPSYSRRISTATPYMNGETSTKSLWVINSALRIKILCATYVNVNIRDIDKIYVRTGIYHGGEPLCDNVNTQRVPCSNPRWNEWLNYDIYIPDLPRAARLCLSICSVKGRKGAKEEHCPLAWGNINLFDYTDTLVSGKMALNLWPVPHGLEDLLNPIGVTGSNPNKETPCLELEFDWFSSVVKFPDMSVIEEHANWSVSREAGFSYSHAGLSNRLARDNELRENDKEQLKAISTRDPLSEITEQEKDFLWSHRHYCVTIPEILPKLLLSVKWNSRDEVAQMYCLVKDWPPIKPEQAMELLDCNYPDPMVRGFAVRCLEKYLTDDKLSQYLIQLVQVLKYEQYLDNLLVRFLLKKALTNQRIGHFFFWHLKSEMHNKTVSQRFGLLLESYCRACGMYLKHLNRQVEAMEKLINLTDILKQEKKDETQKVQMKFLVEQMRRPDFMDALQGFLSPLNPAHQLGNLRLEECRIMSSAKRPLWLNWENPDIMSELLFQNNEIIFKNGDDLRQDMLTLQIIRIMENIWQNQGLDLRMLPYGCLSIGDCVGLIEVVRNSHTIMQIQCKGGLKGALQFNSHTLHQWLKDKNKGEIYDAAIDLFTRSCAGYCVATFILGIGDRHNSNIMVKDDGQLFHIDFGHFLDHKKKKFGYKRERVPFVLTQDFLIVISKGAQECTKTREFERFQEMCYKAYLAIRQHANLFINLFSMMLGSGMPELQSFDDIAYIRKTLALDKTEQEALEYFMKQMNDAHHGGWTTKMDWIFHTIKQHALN
Class I PI3K alpha isoform, sequence (P27986 whole entry partner, canonical isoform): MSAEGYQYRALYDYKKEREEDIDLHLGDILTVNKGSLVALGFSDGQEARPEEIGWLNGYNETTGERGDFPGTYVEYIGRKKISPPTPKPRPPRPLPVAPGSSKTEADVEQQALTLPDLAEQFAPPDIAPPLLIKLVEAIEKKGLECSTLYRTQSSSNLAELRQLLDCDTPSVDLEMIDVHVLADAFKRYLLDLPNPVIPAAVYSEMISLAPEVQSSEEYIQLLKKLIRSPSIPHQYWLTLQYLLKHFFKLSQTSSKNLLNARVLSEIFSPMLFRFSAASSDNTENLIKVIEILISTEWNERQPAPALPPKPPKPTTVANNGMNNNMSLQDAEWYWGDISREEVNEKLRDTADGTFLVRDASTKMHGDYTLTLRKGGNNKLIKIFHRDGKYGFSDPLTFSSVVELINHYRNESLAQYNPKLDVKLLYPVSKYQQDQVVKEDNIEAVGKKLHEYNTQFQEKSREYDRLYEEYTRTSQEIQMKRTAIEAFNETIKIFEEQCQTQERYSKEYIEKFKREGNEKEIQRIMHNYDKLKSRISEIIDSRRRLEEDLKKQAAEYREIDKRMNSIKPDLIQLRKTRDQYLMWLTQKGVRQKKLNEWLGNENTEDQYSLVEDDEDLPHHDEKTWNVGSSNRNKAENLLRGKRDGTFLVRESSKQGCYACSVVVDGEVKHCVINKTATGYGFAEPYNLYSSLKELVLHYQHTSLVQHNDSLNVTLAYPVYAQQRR

Row | Compound | patients requiring 1 dose reduction of palbociclib [1] [%] | patients with cycle delays [1] [%] | patients with dose holds [1] [%] | patients requiring 1 dose reduction of palbociclib [2] [%] | patients with cycle delays [2] [%] | patients with dose holds [2] [%] | apoptosis of PIK3CA-mutant breast cancer cell lines [3] | proliferation of PIK3CA-mutant breast cancer cell lines [3] | tumor growth in xenograft models [4] | downstream PI3K-pathway markers [5] | fold less potent biochemical inhibition for other Class I PI3K isoforms [6] [fold] | potency in mutant PI3K tumor cells over wild type PI3K cells [7] | degradation of mutant p110 alpha [8]
1 | CC(=O)c1c(C)c2cnc(Nc3ccc(N4CCNCC4)cn3)nc2n(C2CCCC2)c1=O [palbociclib, 6-acetyl-8-cyclopentyl-5-methyl-2-(5-(piperazin-1-yl)pyridin-2-ylamino)pyrido[2,3-d]pyrimidin-7(8H)-one] | 36 | 68 | 70 | 34 | 36 | 54 |  |  |  |  |  |  | 
2 | C[C@H](Nc1ccc2c(c1)OCCn1cc(N3C(=O)OC[C@H]3C(F)F)nc1-2)C(N)=O [GDC-0077, (S)-2-((2-((S)-4-(difluoromethyl)-2-oxooxazolidin-3-yl)-5,6-dihydrobenzo[f]imidazo[1,2-d][1,4]oxazepin-9-yl)amino)propanamide] |  |  |  |  |  |  | induces apoptosis | inhibits proliferation | inhibits tumor growth | reduces downstream PI3K-pathway markers | > 300 | increased potency | specifically degrades mutant p110 alpha
